Assay results reported in US11124495B2, “Tetrahydroisoquinolines and terahydronaphthyridines for the treatment of hepatitis B virus infection” (Hoffmann-La Roche Inc., priority 2016, dated 2021).
Where two headings read alike, the source gives them in different places.

Assays:
[1] = test system: HBsAg; experiment: HBsAg assay (CLIA on supernatant of HepG2.2.15 cells); assay type: cell-based, HBV; settings: HBsAg secretion reduced by 50% compared to the no drug control
Protocol: (§1) HepG2.2.15 cells (Acs et al. Proc Natl Acad Sci USA, 84, (1987), 4641-4), a constitutively HBV-expressing cell line were cultured in DMEM+Glutamax-I medium (Invitrogen, Carlsbad, Calif., USA), supplemented with 10% fetal bovine serum (Invitrogen) and G418 (Invitrogen) at a final concentration of 200 mg/L and maintained in 5% CO2 at 37° C.
HepG2.2.15 cells were seeded in duplicate into white, 96-well plates at 1.5×10^4 cells/well. The cells were treated with a three-fold serial dilution series of the compounds in DMSO. The final DMSO concentration in all wells was 1% and DMSO was used as no drug control.
The HBsAg chemiluminescence immunoassay (CLIA) kit (Autobio Diagnostics Co., Zhengzhou, China, Catalog number: CL0310-2) was used to measure the levels of secreted HBV antigens semi-quantitatively. For the detection 50 μL/well culture supernatant was used and HBsAg was quantified using HBsAg chemiluminescence immunoassay (CLIA) kit (Autobio Diagnostics Co., Zhengzhou, China, Catalog number: CL0310-2), 50 μL of the supernatant was transferred to the CLIA assay plate and 50 μL of enzyme conjugate reagent was added into each well. The plates were sealed and gently agitated for 1 hour at room temperature. The supernatant-enzyme-mixture was discarded and wells were washed 6 times with 300 μL of PBS. The residual liquid was removed by plating the CLIA plate right side down on absorbent tissue paper. 25 μL of substrates A and B were added to each well. Luminance was measured using a luminometer (Mithras LB 940 Multimode Microplate Reader) after 10 minutes incubation. Dose-response curves were generated and the IC50 value was extrapolated by using the E-WorkBook Suite (ID Business Solutions Ltd., Guildford, UK). The IC50 was defined as the compound concentration at which HBsAg secretion was reduced by 50% compared to the no drug control.
The compounds according to formula I were tested for their capacity to inhibit HBsAg as described herein.

[2] = test system: HBV DNA; experiment: HBV DNA assay (real-time qPCR of extracellular HBV DNA, HepG2.2.15 cells); assay type: cell-based; settings: Hepatitis B virus, 144 h, extracellular HBV DNA in supernatant, six days after treatment, read-out: IC50, anti HBV DNA production activity
Protocol: as §1
The assay employs real-time qPCR (TaqMan) to directly measure extracellular HBV DNA copy number in the cell supernatant. HepG2.2.15 cells were plated in 96-well microtiter plates before treatment with complete medium (DMEM, Glutamax, 10% FBS, 1% Penicillin/Streptomycin, 250 μg/mL Genetycin, final DMSO concentration is 1%). Only the interior wells were utilized to reduce “edge effects” observed during cell culture, the exterior wells were filled with complete medium to help minimize sample evaporation. […]

[3] = Hepatitis B virus, HepG2.2.15, read-out: IC50 in HBsAg assay, HepG2.2.15 cells
[4] = read-out: IC50 in HBsAg assay, HepG2.2.15 cells

c1cnc(-c2ncc(N3CCc4ccccc4C3)cn2)nc1 [Example 1, 2-(2-Pyrimidin-2-ylpyrimidin-5-yl)-3,4-dihydro-1H-isoquinoline]
IC50 [1, 3]: 3170 nM

Fc1ccc2c(c1)CN(c1cnc(-c3ncccn3)nc1)CC2 [Example 2, 7-Fluoro-2-(2-pyrimidin-2-ylpyrimidin-5-yl)-3,4-dihydro-1H-isoquinoline]
IC50 [1, 4]: 22500 nM

COc1cc2c(cc1OC)CN(c1cnc(-c3ncccn3)nc1)CC2 [Example 3, 6,7-Dimethoxy-2-(2-pyrimidin-2-ylpyrimidin-5-yl)-3,4-dihydro-1H-isoquinoline]
IC50 [1, 3]: 2320 nM

COc1ccc2c(c1)CCN(c1cnc(-c3ncccn3)nc1)C2 [Example 4, 6-Methoxy-2-(2-pyrimidin-2-ylpyrimidin-5-yl)-3,4-dihydro-1H-isoquinoline]
IC50 [1, 3]: 5200 nM

COc1cc(F)c2c(c1)CN(c1cnc(-c3ncccn3)nc1)CC2 [Example 5, 5-Fluoro-7-methoxy-2-(2-pyrimidin-2-ylpyrimidin-5-yl)-3,4-dihydro-1H-isoquinoline]
IC50 [1, 3]: 355 nM

COc1cc(F)cc2c1CCN(c1cnc(-c3ncccn3)nc1)C2 [Example 6, 7-Fluoro-5-methoxy-2-(2-pyrimidin-2-ylpyrimidin-5-yl)-3,4-dihydro-1H-isoquinoline]
IC50 [1, 3]: 454 nM

COc1cc(F)c2c(c1)C(C)N(c1cnc(-c3ncccn3)nc1)CC2 (stereo not shown) [Example 7, 5-Fluoro-7-methoxy-1-methyl-2-(2-pyrimidin-2-ylpyrimidin-5-yl)-3,4-dihydro-1H-isoquinoline]
IC50 [1, 3]: 315 nM

COc1cc(F)c2c(c1)CN(c1cnc(-c3ncccn3)cn1)CC2 [Example 8, 5-Fluoro-7-methoxy-2-(5-pyrimidin-2-ylpyrazin-2-yl)-3,4-dihydro-1H-isoquinoline]
IC50 [2]: 292 nM | IC50 [1, 3]: 445 nM

Clc1ccc2c(c1)CCN(c1cnc(-c3ncccn3)nc1)C2 [Example 9, 6-Chloro-2-(2-pyrimidin-2-ylpyrimidin-5-yl)-3,4-dihydro-1H-isoquinoline]
IC50 [1, 3]: 2520 nM

COc1cc2c(cc1OC)CN(c1ccc(-c3ccccn3)nc1)CC2 [Example 10, 6,7-Dimethoxy-2-[6-(2-pyridyl)-3-pyridyl]-3,4-dihydro-1H-isoquinoline]
IC50 [1, 3]: 3120 nM

Fc1ccc2c(c1)CN(c1cnc(-c3ncccn3)nc1)CC2 [Example 11, 7-Fluoro-2-(2-pyrimidin-2-ylpyrimidin-5-yl)-3,4-dihydro-1H-isoquinoline]
IC50 [1, 4]: 3890 nM

COc1ccc2c(n1)CN(c1cnc(-c3ncccn3)nc1)CC2 [Example 12, 2-Methoxy-7-(2-pyrimidin-2-ylpyrimidin-5-yl)-6,8-dihydro-5H-1,7-naphthyridine]
IC50 [1, 3]: 5770 nM

COc1cc2c(cn1)CCN(c1cnc(-c3ncccn3)nc1)C2 [Example 13, 7-Methoxy-2-(2-pyrimidin-2-ylpyrimidin-5-yl)-3,4-dihydro-1H-2,6-naphthyridine]
IC50 [1, 3]: 3700 nM

COc1ccc2c(c1)CN(c1cnc(-c3ncccn3)nc1)CC2 [Example 14, 7-Methoxy-2-(2-pyrimidin-2-ylpyrimidin-5-yl)-3,4-dihydro-1H-isoquinoline]
IC50 [1, 3]: 990 nM

c1cnc(-c2ncc(N3CCc4ccc(C5CC5)cc4C3)cn2)nc1 [Example 15, 7-Cyclopropyl-2-(2-pyrimidin-2-ylpyrimidin-5-yl)-3,4-dihydro-1H-isoquinoline]
IC50 [1, 3]: 1690 nM

CN(C)c1ccc2c(c1)CN(c1cnc(-c3ncccn3)nc1)CC2 [Example 16, N,N-Dimethyl-2-(2-pyrimidin-2-ylpyrimidin-5-yl)-3,4-dihydro-1H-isoquinolin-7-amine]
IC50 [1, 3]: 406 nM

Cc1ccc2c(c1)CN(c1cnc(-c3ncccn3)nc1)CC2 [Example 17, 7-Methyl-2-(2-pyrimidin-2-ylpyrimidin-5-yl)-3,4-dihydro-1H-isoquinoline]
IC50 [1, 3]: 2010 nM

CNc1ccc2c(c1)CN(c1cnc(-c3ncccn3)nc1)CC2 [Example 18, N-Methyl-2-(2-pyrimidin-2-ylpyrimidin-5-yl)-3,4-dihydro-1H-isoquinolin-7-amine]
IC50 [1, 3]: 4640 nM

Fc1cc(OCC(F)F)cc2c1CCN(c1cnc(-c3ncccn3)nc1)C2 [Example 19, 7-(2,2-Difluoroethoxy)-5-fluoro-2-(2-pyrimidin-2-ylpyrimidin-5-yl)-3,4-dihydro-1H-isoquinoline]
IC50 [1, 3]: 255 nM

N#Cc1ccc2c(c1)CN(c1cnc(-c3ncccn3)nc1)CC2 [Example 20, 2-(2-Pyrimidin-2-ylpyrimidin-5-yl)-3,4-dihydro-1H-isoquinoline-7-carbonitrile]
IC50 [1, 3]: 8640 nM

Fc1cc(OCC2CC2)cc2c1CCN(c1cnc(-c3ncccn3)nc1)C2 [Example 21, 7-(Cyclopropylmethoxy)-5-fluoro-2-(2-pyrimidin-2-ylpyrimidin-5-yl)-3,4-dihydro-1H-isoquinoline]
IC50 [1, 3]: 244 nM

Clc1ccc2c(c1)CN(c1cnc(-c3ncccn3)nc1)CC2 [Example 22, 7-Chloro-2-(2-pyrimidin-2-ylpyrimidin-5-yl)-3,4-dihydro-1H-isoquinoline]
IC50 [1, 3]: 2040 nM

CN(C)c1ccc2c(c1)CCN(c1cnc(-c3ncccn3)nc1)C2 [Example 23, N,N-Dimethyl-2-(2-pyrimidin-2-ylpyrimidin-5-yl)-3,4-dihydro-1H-isoquinolin-6-amine]
IC50 [1, 3]: 2220 nM

c1cnc(-c2ncc(N3CCc4cc(C5CC5)ccc4C3)cn2)nc1 [Example 24, 6-Cyclopropyl-2-(2-pyrimidin-2-ylpyrimidin-5-yl)-3,4-dihydro-1H-isoquinoline]
IC50 [1, 3]: 1380 nM

N#Cc1cccc2c1CCN(c1cnc(-c3ncccn3)nc1)C2 [Example 25, 2-(2-Pyrimidin-2-ylpyrimidin-5-yl)-3,4-dihydro-1H-isoquinoline-5-carbonitrile]
IC50 [1, 3]: 1190 nM

COC1CN(c2ccc3c(c2)CN(c2cnc(-c4ncccn4)nc2)CC3)C1 [Example 26, 7-(3-Methoxyazetidin-1-yl)-2-(2-pyrimidin-2-ylpyrimidin-5-yl)-3,4-dihydro-1H-isoquinoline]
IC50 [1, 3]: 1410 nM

Fc1cccc2c1CCN(c1cnc(-c3ncccn3)nc1)C2 [Example 27, 5-Fluoro-2-(2-pyrimidin-2-ylpyrimidin-5-yl)-3,4-dihydro-1H-isoquinoline]
IC50 [1, 3]: 3030 nM

NC(=O)COc1cc(F)c2c(c1)CN(c1cnc(-c3ncccn3)nc1)CC2 [Example 28, 2-[[5-Fluoro-2-(2-pyrimidin-2-ylpyrimidin-5-yl)-3,4-dihydro-1H-isoquinolin-7-yl]oxy]acetamide]
IC50 [1, 3]: 8520 nM

c1cnc(-c2ncc(N3CCc4c(cccc4C4CC4)C3)cn2)nc1 [Example 29, 5-Cyclopropyl-2-(2-pyrimidin-2-ylpyrimidin-5-yl)-3,4-dihydro-1H-isoquinoline]
IC50 [1, 3]: 6890 nM

CN(C)c1cccc2c1CCN(c1cnc(-c3ncccn3)nc1)C2 [Example 30, N,N-Dimethyl-2-(2-pyrimidin-2-ylpyrimidin-5-yl)-3,4-dihydro-1H-isoquinolin-5-amine]
IC50 [1, 3]: 43300 nM

COc1cc(Cl)c2c(c1)CN(c1cnc(-c3ncccn3)nc1)CC2 [Example 31, 5-Chloro-7-methoxy-2-(2-pyrimidin-2-ylpyrimidin-5-yl)-3,4-dihydro-1H-isoquinoline]
IC50 [1, 3]: 68 nM

COc1cc(Cl)cc2c1CCN(c1cnc(-c3ncccn3)nc1)C2 [Example 32, 7-Chloro-5-methoxy-2-(2-pyrimidin-2-ylpyrimidin-5-yl)-3,4-dihydro-1H-isoquinoline]
IC50 [1, 3]: 251 nM

CCC1c2cc(OC)cc(F)c2CCN1c1cnc(-c2ncccn2)nc1 (stereo not shown) [Example 33, Ethyl-5-fluoro-7-methoxy-2-(2-pyrimidin-2-ylpyrimidin-5-yl)-3,4-dihydro-1H-isoquinoline]
IC50 [1, 3]: 790 nM
